Source: patent US11998558B2, “Synthetic composition for treating antibiotic associated complications” (GLYCOM A/S, priority 2015, dated 2024)

Tests used:
[1] = system: B. adolescentis phylogenetic group; test: Healthy adult study, ITS profiling of the Bifidobacterium community in faecal samples; format: in vivo, human; conditions: healthy adults
Method: (§1) A total of 100 male and female healthy adults are recruited to participate in the study. After a screening visit and run-in period of 1-2 weeks, the participants are selected and randomized into ten groups, each of 10 subjects. One group is administered daily a placebo product containing 2 grams of glucose. The remaining 9 groups are administered daily a treatment product containing one of the following: a) 20 g of 2′-FL, b) 10 g of 2′-FL, c) 5 g of 2′-FL, d) 20 g of LNnT, e) 10 g of LNnT, f) 5 g of LNnT, g) 20 g of a 2:1 mixture of 2′-FL and LNnT, h) 10 g of a 2:1 mixture of 2′-FL and LNnT, and i) 5 g of a 2:1 mixture of 2′-FL and LNnT for 2 weeks. The placebo and treatment products are in powder form in a unit dosage container.
(§2) The study runs for 2 weeks with the participants consuming either a placebo or a treatment product daily. Participants are instructed to consume the products in the morning with breakfast. Compliance is monitored through the interactive internet enabled system.
(§3) To assess the Bifidobacterium community, ITS profiling of DNA samples is performed according to Milani et al, FEMS Microbiol. Ecol. 90, 493 (2014). […] Both B. adolescentis and B. pseudocatenulatum are members of the B. adolescentis phylogenetic group. It can be seen that oral ingestion of the HMOs clearly increases the abundance of B. adolescentis and/or B. pseudocatenulatum in the microbiota of healthy adults, as well as its relative abundance compared to the totality of other Bifidobacterium species.

[2] = system: totality of B. longum + B. bifidum + B. animalis lactis + B. angulatum; test: as above; format: in vivo, human; conditions: healthy adults
Method: as §1, §2, §3

| Compound | percentage increase of B. adolescentis phylogenetic group in human faeces after consumption of HMOs ([1]; 5 g daily for 2 weeks) | percentage increase of B. adolescentis phylogenetic group in human faeces after consumption of HMOs ([1]; 10 g daily for 2 weeks) | percentage increase of B. adolescentis phylogenetic group in human faeces after consumption of HMOs ([1]; 20 g daily for 2 weeks) | percentage increase of totality of B. longum + B. bifidum + B. animalis lactis + B. angulatum in human faeces after consumption of HMOs ([2]; 5 g daily for 2 weeks) | percentage increase of totality of B. longum + B. bifidum + B. animalis lactis + B. angulatum in human faeces after consumption of HMOs ([2]; 10 g daily for 2 weeks) | percentage increase of totality of B. longum + B. bifidum + B. animalis lactis + B. angulatum in human faeces after consumption of HMOs ([2]; 20 g daily for 2 weeks) |
| --- | --- | --- | --- | --- | --- | --- |
| CC(=O)N[C@H]1[C@H](O[C@H]2[C@@H](O)[C@@H](CO)O[C@@H](O[C@H]3[C@H](O)[C@@H](O)C(O)O[C@@H]3CO)[C@@H]2O)O[C@H](CO)[C@@H](O[C@@H]2O[C@H](CO)[C@H](O)[C@H](O)[C@H]2O)[C@@H]1O (mixture of isomers) [LNnT, lacto-N-neotetraose] | 90% | 195% | 185% | 50% | 130% | 105% |
| 2′-fucosyllactose [2′-FL] | 50% | 325% | 120% | 0% | 20% | 15% |
